Assays:
in vitro [1] = conditions: human, Caco-2
in vitro [2] = conditions: mouse, blood
in vitro [3] = conditions: human, blood
in vivo [4] = conditions: CD-1, mouse, iv, 5 mg/kg
in vivo [5] = conditions: CD-1, mouse, po, 10 mg/kg
in vivo [6] = conditions: CD-1, mouse, po, 10 mg/kg; remark: listed apart in the source
in vivo [7] = conditions: CD-1, mouse, po, 10 mg/kg; remark: listed apart in the source
in vivo [8] = conditions: CD-1, mouse, iv, 5 mg/kg; remark: listed apart in the source

SMILES	Papp A→B at 2 h (in vitro [1])	half-life at 2 h, 2 µM (in vitro [2])	half-life at 2 h, 2 µM (in vitro [3])	Vd at 24 h (in vivo [4])	AUC at 24 h (in vivo [5])	Cmax at 24 h (in vivo [6])	bioavailability at 24 h (in vivo [7])	clearance at 24 h (in vivo [8])
C=CC(=O)Nc1ccc(CCc2nc(Nc3cc(C)[nH]n3)cc(N3CCN(C)CC3)n2)cc1	0.3 ×10⁻⁶ cm/s	2.62 h	4.12 h					
C=CC(=O)Nc1ccc(/C=C/c2nc(Nc3cc(C(C)C)[nH]n3)cc(N3CCN(C)CC3)n2)cc1	0.1 ×10⁻⁶ cm/s	1.9 h	2.02 h	3.1 L/kg	400 ng·h/mL	103 ng/mL	21%	86.3 mL/min/kg
C=CC(=O)N1CCC2(CCN(c3nc(Nc4cc(C(C)C)[nH]n4)cc(N4CCN(C)CC4)n3)CC2)C1	0.2 ×10⁻⁶ cm/s	2.73 h	3.03 h					

Source: ChEMBL document CHEMBL4673390, “Discovery of Aminopyrazole Derivatives as Potent Inhibitors of Wild-Type and Gatekeeper Mutant FGFR2 and 3” (ACS Med Chem Lett, 2021)
